{"source": "patent US9226918B2", "about": "“Methods and compositions for treating or preventing narcotic withdrawal symptoms” (The Board of Trustees of the Leland Stanford Junior …, priority 2008, dated 2016)", "type_in_all_cases": "in vivo", "key": {"C57BL/6J mice [1]": {"test_system": "C57BL/6J mice", "test": "Opioid dependence related hyperalgesia, mechanical nociceptive threshold (von Frey filaments)", "procedure": "(§1) In some experiments the selective 5-HT3 antagonist ondansetron (Sigma) was administered. For systemic administration, ondansetron was injected subcutaneously in […] of 0.9% NaCl to some groups of mice. […] For intracerebroventricular (i.c.v.) administration, mice were briefly anesthetized with inhaled isoflurane. A 30 gauge ½ inch needle was used to pierce the skull and enter the ventricles using an approach described previously (Pedigo, N. W. et al. J Pharmacol Exp Ther, 1975. 193(3): p. 845-852). Once inserted, 5 μl of injectate was slowly administered using a microsyringe, and the animals were used within 20 minutes after the injection.\nIn these experiments, mice were placed on wire mesh platforms in clear cylindrical plastic cylinders. After 15 minutes of acclimation, fibers of sequentially increasing stiffness were applied to the plantar surface of one hind paw, pressed upward to cause a slight bend in the fiber and left in place 5 sec. Withdrawal of the hind paw from the fiber was scored as a response. When no response was obtained the next stiffest fiber in the series was applied to the same paw; if a response was obtained a less stiff fiber was applied. Testing proceeded in this manner until 4 fibers had been applied after the first one causing a withdrawal response allowing the estimation of the mechanical withdrawal threshold (Poree, L. R., et al., Anesth Analg, 1998. 87(4): p. 941-948)."}, "morphine-dependent mice": {"test_system": "morphine-dependent mice", "test": "Naloxone-precipitated withdrawal jumping in morphine-dependent mice", "procedure": "After naloxone administration, mice were placed in clear plastic cylinders (10 cm in diameter and 40 cm in height, and the number of jumps during the following 15 minutes were counted. Naloxone precipitated jumping behavior is a robust response reflecting physical dependence on opioids observed across strains of inbred mice (Kest, B., et al., Neuroscience 2002. 115(2): 463-469).\nas §1"}, "C57BL/6J mice [2]": {"test_system": "C57BL/6J mice", "test": "Conditioned place preference (CPP) associated with morphine", "procedure": "The CPP experiments were performed using Place Preference System (MED Associates Inc., St. Albans, Vt.), which consists of three compartments; two outer compartments for active association and a middle neutral compartment. One association compartment is constructed of white opaque plastic walls with a floor made of metal rods while the other compartment is made of black opaque plastic walls with a metal mesh floor. The smaller middle neutral compartment is made of gray opaque plastic walls and floor. Experiments were conducted in a dimly lit room with homogenous lighting (˜20 lux). The place preference apparatus is equipped with motion photo-sensors with data recorded via a computer running MED PC software (MED Associates Inc, Vt.). C57B1/6J mice (8 to 12 weeks old) were used in all experiments, which were carried out during the second half of the light phase between 13:00-18:00 hr. On Day 0, the mice were acclimated to the test room and the time spent in each compartment was recorded (pre-conditioning report). Any mouse that spent more than 75% of the time in either of the association compartments was excluded. On the following day each mouse was randomized to a control or drug group and assigned to either the white or black association compartments in a counter-balanced fashion (n=10-15 per group). […] Twenty-five minutes after injection(s), each mouse was placed into its assigned association compartment for 25 min without access to the other compartments. On Days 2, 4 and 6, the mice received saline injections and were placed in the alternative compartment after 25 min. On Day 7, mice were placed in the middle neutral compartment of the place preference apparatus with full access to the other two compartments and assessed for the length of time spent in each compartment (post-conditioning report). The percentage of time spent in each association compartment was calculated relative to the total time spent in both association compartments."}, "healthy male volunteers": {"test_system": "healthy male volunteers", "test": "Acute naloxone-precipitated opioid withdrawal in human volunteers after ondansetron pretreatment (OOWS, SOWS)", "text": "Eight healthy male volunteers underwent an acute precipitated narcotic drug withdrawal protocol as previously described (Compton, P., et al., Pharmacol Biochem Behav, 2004. 77(2): p. 263-268) with or without ondansetron pretreatment using a randomized double-blinded placebo-controlled crossover study design on two separate occasions. Test sessions for each individual subject were separated by at least seven days. Female volunteers were excluded from the study due to modulation of opioid response by menstruation cycles (Hoehe, M., Psychoneuroendocrinology, 1988. 13(4): p. 339-344). The human experimental protocol was approved by the Institutional Review Board (Stanford University). Each volunteer provided written informed consent prior to study enrollment, and the study was registered in the clinicaltrials.gov database (identifier NCT00661674).\nAll study sessions were conducted by a blinded research assistant (ND) and supervised by an un-blinded physician (LC) who administered the study medication and monitored heart rate, blood pressure and arterial oxygenation throughout the study. The subjective opioid withdrawal scale (SOWS) and objective opioid withdrawal scale (OOWS) were completed after establishing intravenous access and before administration of study medications, as originally described by Handelsman et al (Handelsman, L., et al., Am J Drug Alcohol Abuse, 1987. 13(3): p. 293-308). All OOWS measurements were obtained by the same blinded research assistant (ND). Ondansetron (Bedford Laboratories, Bedford, Ohio) 8 mg or placebo (0.9% saline solution, Hospira Inc., Lake Forest, Ill.) was administered in a double-blinded fashion as an IV bolus. […] Patients remained in the lab under observation for 105 minutes and were offered music or video entertainment and caffeine-free meals or snacks ad lib during this period of time. After 105 minutes, the patient's vital signs and OOWS and SOWS were reassessed. […] Vital signs, SOWS and OOWS were administered five minutes and fifteen minutes after the naloxone administration.\nAnimal behavioral data was analyzed using one or two-way ANOVA with post-hoc Tukey testing or, for conditioned place preference data with t-testing. The outcome measures of interest between the placebo- and ondansetron-treated groups were compared using paired t test and the Wilcoxon Signed Rank test where appropriate. Normal distribution was determined using QQ plots and the Kolmogorov-Smirnov test. Analyses were performed with SAS 9.1 statistical package (Cary, Ill.) with p<0.05 considered statistically significant."}, "Htr3b mRNA": {"test_system": "Htr3b mRNA", "test": "Htr3b mRNA expression in brain after chronic morphine (specificity control)", "details": "brain tissue, four days of morphine versus saline, C57Bl/6J and 129/SvlmJ mice"}, "male volunteers": {"test_system": "male volunteers", "test": "Naloxone-induced withdrawal in human volunteers, palonosetron alone or with hydroxyzine", "details": "palonosetron 0.75 mg IV alone, 12 male volunteers", "procedure": "In these studies, palonosetron (a 5-HT3 antagonist) was administered alone, or in combination with a clinically available antihistamine (hydroxyzine) to human volunteers."}, "[3]": {"details": "ondansetron 8 mg IV 30 minutes prior to morphine 10 mg/70 kg IV, naloxone 120 minutes after morphine, versus placebo"}}, "note": "“Also recorded” adds a separate entry of the source."}
{"smiles": "Cc1nccn1CC1CCc2c(c3ccccc3n2C)C1=O", "note": "(stereo not drawn) [ondansetron]", "values": [{"measurement": "pain sensitivity / baseline nociceptive thresholds", "setting": "C57BL/6J mice [1]; control mice not treated with morphine, ondansetron 30 minutes prior to threshold assessment", "result": "no effect on pain sensitivity; also recorded: did not alter baseline nociceptive thresholds"}, {"measurement": "hyperalgesia (mechanical nociceptive sensitization) during morphine abstinence", "setting": "C57BL/6J mice [1]; morphine-dependent mice, 18 hours after last morphine dose, ondansetron 30 minutes prior to threshold assessment (FIG. 4)", "result": "reversed the hyperalgesia; also recorded: dose-dependently reversed"}, {"measurement": "naloxone-precipitated withdrawal response", "setting": "morphine-dependent mice; C57BL/6J mice, ondansetron 1 mg/kg with each morphine dose during 4-day protocol, tested 18 hours after final dose (FIG. 3B)", "result": "diminished the naloxone-precipitated withdrawal response"}, {"measurement": "inhibition of naloxone-precipitated withdrawal", "setting": "morphine-dependent mice; morphine-dependent C57BL/6J mice, ondansetron 1 mg/kg given acutely", "result": "not able to effectively inhibit withdrawal"}, {"measurement": "naloxone-precipitated jumping behavior", "setting": "morphine-dependent mice; morphine-dependent C57BL/6J mice, ondansetron i.c.v. before naloxone (FIG. 3C)", "result": "profoundly blocked; also recorded: statistically significant and dose-dependent reduction"}, {"measurement": "naloxone-induced jumping", "setting": "morphine-dependent mice; morphine-dependent C57BL/6J mice, ondansetron s.c. once, range of doses, 30 minutes prior to testing (FIG. 3A)", "result": "significantly reduced; also recorded: statistically significant and dose-dependent reduction"}, {"measurement": "mean difference between pre and post conditioning percentage of time spent in the compartment associated with drug", "setting": "C57BL/6J mice [2]; ondansetron 1 mg/kg in addition to morphine 5 mg/kg, i.p.", "result": 0.40, "unit": "%"}, {"measurement": "place preference associated with morphine administration", "setting": "C57BL/6J mice [2]; ondansetron 1 mg/kg plus morphine 5 mg/kg", "result": "completely blocked"}, {"measurement": "decrease in mean OOWS score", "setting": "healthy male volunteers; [3]", "result": "76.4%±22.6"}, {"measurement": "mean decrease in the subjective symptoms (SOWS score)", "setting": "healthy male volunteers; [3]", "result": "4.1%±62.5"}, {"measurement": "individual OOWS signs manifested by the volunteers", "setting": "healthy male volunteers; ondansetron 8 mg IV pre-treatment, 12 of the 13 measured signs manifested", "result": "decreased all 12 of these individual signs"}, {"measurement": "objective signs of opioid withdrawal in affected subjects", "setting": "healthy male volunteers; ondansetron 8 mg IV pre-treatment, seven of 8 subjects developed signs", "result": "reduced these signs in all seven affected individuals"}]}
{"smiles": "CN1CC[C@]23c4c5ccc(O)c4O[C@H]2[C@@H](O)C=C[C@H]3[C@H]1C5", "note": "[morphine]", "values": [{"measurement": "expression of the Htr3b gene", "setting": "Htr3b mRNA", "result": "not altered"}, {"measurement": "hyperalgesia after chronic morphine treatment", "setting": "C57BL/6J mice [1]; C57BL/6J mice, four day morphine protocol", "result": "caused hyperalgesia"}, {"measurement": "jumps in the 15 minute period following naloxone administration", "setting": "morphine-dependent mice; BUB/BnJ mice made dependent on morphine over a 4-day period", "result": "over 100"}, {"measurement": "jumps in the 15 minute period following naloxone administration", "setting": "morphine-dependent mice; SM/J mice made dependent on morphine over a 4-day period", "result": "one"}, {"measurement": "mean difference between pre and post conditioning percentage of time spent in the compartment associated with drug", "setting": "C57BL/6J mice [2]; morphine 5 mg/kg i.p., placed in conditioning chamber 25 min after injection", "result": 21.29, "unit": "%"}]}
{"smiles": "O=C1c2cccc3c2[C@H](CCC3)CN1[C@@H]1CN2CCC1CC2", "note": "[palonosetron]", "values": [{"measurement": "naloxone-induced withdrawal symptoms relative to placebo control", "setting": "male volunteers", "result": "reduced the naloxone-induced withdrawal symptoms"}]}
